Source: paper PMC10512030, “Prolidase-proline oxidase axis is engaged in apoptosis induction by birch buds flavonol santin in endometrial adenocarcinoma cell line” (Frontiers in Molecular Biosciences, 2023)

System: p53
Experiment: Western immunoblot of p53 in treated cells
Format: cell-based, human
Conditions: 48 h; for expression of p53 (Western blot): Ishikawa cells
Method: Adherent and floating cells were harvested and sonicated. Obtained homogenates were supplemented with 1% protease and phosphatase inhibitor cocktail (#78440, Thermo Fisher Scientific). The Lowry assay was performed to quantify protein content in the homogenates. Proteins (20–40 μg) were resolved on 7.5%, 10%, or 12% SDS-PAGE gels using the Mini-Protean Tetra system (Bio-Rad). Proteins were transferred to nitrocellulose membranes (Bio-Rad) using the Mini Trans-Blot Cell wet blotting system (Bio-Rad). Membranes were blocked with 5% skim milk for 1 h at room temperature and probed overnight at 4°C with primary antibodies. The following antibodies purchased from Cell Signaling Technology were used: anti-caspase-9 antibody (#9508, 1:1,000), anti-caspase-8 antibody (#9746, 1:1,000), anti-caspase-3 antibody (#9662, 1:1,000), anti-caspase-7 antibody (#12827, 1:1,000), anti-PARP antibody (#9542, 1:1,000) and anti-cleaved PARP antibody (#5625, 1:1,000); anti-proline oxidase antibody (sc-376401, 1:1,000) and anti-p53 antibody (sc-126, 1:500) were obtained from Santa Cruz Biotechnology; anti-prolidase antibody (STJ27369, 1:1,000) was purchased from St John’s Laboratory and anti-actin antibody (#A2066, 1:2,000) was obtained from Sigma-Aldrich. After extensive washes, a secondary antibody solution in 5% skim milk (anti-mouse IgG-HRP, Sigma-Aldrich, #A9044, 1:5,000 or anti-rabbit IgG-HRP, Sigma-Aldrich, #A9169, 1:5000) was added for 1 h at room temperature. Membranes were incubated with ECL-HRP substrate (GE Healthcare), and the signal was detected using the BioSpectrum Imaging System (Ultra-Violet Products, Ltd.). Intensity of the bands was quantified by densitometric analysis using VisionWorks LS software (Ultra-Violet Products, Ltd.).

Q: `COc1ccc(-c2oc3cc(O)c(OC)c(O)c3c(=O)c2OC)cc1` [santin, 5,7-dihydroxy-3,6,4′-trimethoxyflavone] was tested. Which “p53 level (Western blot)” value (HeLa cells, santin 6.2–25 μM) did it give?
A: Its value is “significantly upregulated”.

Q: What about the “expression of p53 (Western blot)” value (santin 6.2–12.5 μM) of the same compound?
A: The value was “slightly increased”.

Q: What about the “expression of p53 (Western blot)” value (santin 25–100 μM) of the same compound?
A: The value was “gradually decreased”.
